Results published in PubChem BioAssay AID2060887 (Molecular Pharmacology Branch, DTP, NCI, 2025).

Test system: 782815-120-R-J1-PDC complex spheroid viability
Experiment: Anticancer human tumor 782815-120-R-J1-PDC patient-derived colon adenocarcinoma cell line growth inhibition [RAS]
Conditions: for IC50: curve of first compound; for viability, T/C: stronger effect = lower value
Outline: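 Multi-cell-type spheroids: tumor cells plus HUVEC endothelial cells and mesenchymal stem cells. RAS-pathway inhibitors were combined with targeted agents, each dosed in half-log steps down from clinical Cmax, or from 10 microM when Cmax was unknown.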

[1] = second compound 0.000949 µM, first compound 0.0316 µM
[2] = second compound 0.000949 µM, first compound 0.1 µM
[3] = second compound 0.000949 µM, first compound 0.316 µM
[4] = second compound 0.000949 µM, first compound 1 µM
[5] = second compound 0.003 µM, first compound 0.0316 µM
[6] = second compound 0.003 µM, first compound 0.1 µM
[7] = second compound 0.003 µM, first compound 0.316 µM
[8] = second compound 0.003 µM, first compound 1 µM
[9] = second compound 0.00949 µM, first compound 0.0316 µM
[10] = second compound 0.00949 µM, first compound 0.1 µM
[11] = second compound 0.00949 µM, first compound 0.316 µM
[12] = second compound 0.00949 µM, first compound 1 µM
[13] = second compound 0.03 µM, first compound 0.0316 µM
[14] = second compound 0.03 µM, first compound 0.1 µM
[15] = second compound 0.03 µM, first compound 0.316 µM
[16] = second compound 0.03 µM, first compound 1 µM
[17] = second compound 0.0949 µM, first compound 0.0316 µM
[18] = second compound 0.0949 µM, first compound 0.1 µM
[19] = second compound 0.0949 µM, first compound 0.316 µM
[20] = second compound 0.0949 µM, first compound 1 µM
[21] = second compound 0.3 µM, first compound 0.0316 µM
[22] = second compound 0.3 µM, first compound 0.1 µM
[23] = second compound 0.3 µM, first compound 0.316 µM
[24] = second compound 0.3 µM, first compound 1 µM
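Also: spheroids exposed to compounds for 7 days before reading.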
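For viability, T/C in this document: 100% = DMSO vehicle control viability.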

Q: How did the IC50 (second compound 0.000949 µM) turn out when CC(C)NCC(C(=O)N1CCN(c2ncnc3c2C(C)CC3O)CC1)c1ccc(Cl)cc1 (centres undefined) + CCn1c(-c2cccnc2C(C)OC)c2c3cc(ccc31)N1CCOC(CC(NC(=O)C(C(C)C)N(C)C(=O)C3(F)CCN(C(=O)C#CC(C)(C)N(C)C)CC3)C(=O)N3CCCC(N3)C(=O)OCC(C)(C)C2)C1 was run?
A: The IC50 was over 10000 nM.

Q: What about the IC50 (second compound 0.003 µM) of the same compound?
A: Its IC50 is over 10000 nM.

Q: What about the IC50 (second compound 0.00949 µM) of the same compound?
A: The IC50 was over 10000 nM.

Q: And the IC50 (second compound 0.03 µM)?
A: Its IC50 is over 10000 nM.

Q: What about the IC50 (second compound 0.0949 µM) of the same compound?
A: The IC50 was over 10000 nM.

Q: And the IC50 (second compound 0.3 µM)?
A: Its IC50 is over 10000 nM.

Q: What about the viability, T/C [1] of the same compound?
A: Its viability, T/C is 90.6%.

Q: What about the viability, T/C [2] of the same compound?
A: The viability, T/C was 90.6%.

Q: And the viability, T/C [3]?
A: The viability, T/C was 104%.

Q: What about the viability, T/C [4] of the same compound?
A: The viability, T/C was 88.8%.

Q: And the viability, T/C (second compound 0.000949 µM, first compound 3.16 µM)?
A: Its viability, T/C is 97.8%.

Q: What about the viability, T/C (second compound 0.000949 µM, first compound 10 µM) of the same compound?
A: Its viability, T/C is 104%.

Q: What about the viability, T/C [5] of the same compound?
A: Its viability, T/C is 86.3%.

Q: And the viability, T/C [6]?
A: The viability, T/C was 98.3%.

Q: And the viability, T/C [7]?
A: Its viability, T/C is 97%.

Q: And the viability, T/C [8]?
A: The viability, T/C was 91.5%.

Q: What about the viability, T/C (second compound 0.003 µM, first compound 3.16 µM) of the same compound?
A: The viability, T/C was 98.2%.

Q: And the viability, T/C (second compound 0.003 µM, first compound 10 µM)?
A: The viability, T/C was 97.5%.

Q: And the viability, T/C [9]?
A: The viability, T/C was 95.4%.

Q: And the viability, T/C [10]?
A: The viability, T/C was 95.9%.

Q: And the viability, T/C [11]?
A: Its viability, T/C is 99.7%.

Q: And the viability, T/C [12]?
A: Its viability, T/C is 93.3%.

Q: What about the viability, T/C (second compound 0.00949 µM, first compound 3.16 µM) of the same compound?
A: Its viability, T/C is 104%.

Q: And the viability, T/C (second compound 0.00949 µM, first compound 10 µM)?
A: The viability, T/C was 104%.

Q: What about the viability, T/C [13] of the same compound?
A: Its viability, T/C is 105%.

Q: And the viability, T/C [14]?
A: The viability, T/C was 90.6%.

Q: And the viability, T/C [15]?
A: Its viability, T/C is 91.9%.

Q: And the viability, T/C [16]?
A: Its viability, T/C is 94.9%.

Q: What about the viability, T/C (second compound 0.03 µM, first compound 3.16 µM) of the same compound?
A: The viability, T/C was 97.2%.

Q: What about the viability, T/C (second compound 0.03 µM, first compound 10 µM) of the same compound?
A: Its viability, T/C is 96.7%.

Q: What about the viability, T/C [17] of the same compound?
A: Its viability, T/C is 97.1%.

Q: What about the viability, T/C [18] of the same compound?
A: The viability, T/C was 97.2%.

Q: And the viability, T/C [19]?
A: Its viability, T/C is 91.9%.

Q: And the viability, T/C [20]?
A: The viability, T/C was 95.1%.

Q: What about the viability, T/C (second compound 0.0949 µM, first compound 3.16 µM) of the same compound?
A: Its viability, T/C is 107%.

Q: And the viability, T/C (second compound 0.0949 µM, first compound 10 µM)?
A: Its viability, T/C is 101%.

Q: What about the viability, T/C [21] of the same compound?
A: Its viability, T/C is 93.4%.

Q: And the viability, T/C [22]?
A: The viability, T/C was 93.8%.

Q: And the viability, T/C [23]?
A: Its viability, T/C is 90.4%.

Q: And the viability, T/C [24]?
A: The viability, T/C was 93.2%.

Q: And the viability, T/C (second compound 0.3 µM, first compound 3.16 µM)?
A: The viability, T/C was 97.2%.

Q: And the viability, T/C (second compound 0.3 µM, first compound 10 µM)?
A: Its viability, T/C is 92.4%.

Q: For Nc1ccn(C2OC(CO)C(O)C2(F)F)c(=O)n1 (centres undefined) + CCn1c(-c2cccnc2C(C)OC)c2c3cc(ccc31)N1CCOC(CC(NC(=O)C(C(C)C)N(C)C(=O)C3(F)CCN(C(=O)C#CC(C)(C)N(C)C)CC3)C(=O)N3CCCC(N3)C(=O)OCC(C)(C)C2)C1, which IC50 (second compound 0.000949 µM) is on record?
A: The IC50 was 29.3 nM.

Q: And the IC50 (second compound 0.003 µM)?
A: Its IC50 is 42.4 nM.

Q: And the IC50 (second compound 0.00949 µM)?
A: The IC50 was 31.5 nM.

Q: What about the IC50 (second compound 0.03 µM) of the same compound?
A: The IC50 was 38 nM.

Q: And the IC50 (second compound 0.0949 µM)?
A: Its IC50 is 50 nM.

Q: And the IC50 (second compound 0.3 µM)?
A: The IC50 was 47.6 nM.

Q: And the viability, T/C (second compound 0.000949 µM, first compound 0.00316 µM)?
A: The viability, T/C was 89.4%.

Q: And the viability, T/C (second compound 0.000949 µM, first compound 0.01 µM)?
A: The viability, T/C was 64.7%.

Q: What about the viability, T/C [1] of the same compound?
A: Its viability, T/C is 50.6%.

Q: What about the viability, T/C [2] of the same compound?
A: The viability, T/C was 37.2%.

Q: What about the viability, T/C [3] of the same compound?
A: Its viability, T/C is 23.5%.

Q: What about the viability, T/C [4] of the same compound?
A: Its viability, T/C is 23.5%.

Q: And the viability, T/C (second compound 0.003 µM, first compound 0.00316 µM)?
A: Its viability, T/C is 95%.

Q: And the viability, T/C (second compound 0.003 µM, first compound 0.01 µM)?
A: Its viability, T/C is 71.3%.

Q: What about the viability, T/C [5] of the same compound?
A: The viability, T/C was 59.3%.

Q: And the viability, T/C [6]?
A: The viability, T/C was 34.6%.

Q: What about the viability, T/C [7] of the same compound?
A: The viability, T/C was 27.3%.

Q: What about the viability, T/C [8] of the same compound?
A: Its viability, T/C is 24.5%.

Q: What about the viability, T/C (second compound 0.00949 µM, first compound 0.00316 µM) of the same compound?
A: The viability, T/C was 96.2%.

Q: And the viability, T/C (second compound 0.00949 µM, first compound 0.01 µM)?
A: Its viability, T/C is 71.8%.

Q: What about the viability, T/C [9] of the same compound?
A: The viability, T/C was 50.8%.

Q: And the viability, T/C [10]?
A: Its viability, T/C is 34.7%.

Q: And the viability, T/C [11]?
A: Its viability, T/C is 29.1%.

Q: What about the viability, T/C [12] of the same compound?
A: The viability, T/C was 25.7%.

Q: And the viability, T/C (second compound 0.03 µM, first compound 0.00316 µM)?
A: Its viability, T/C is 85.4%.

Q: What about the viability, T/C (second compound 0.03 µM, first compound 0.01 µM) of the same compound?
A: The viability, T/C was 75.7%.

Q: And the viability, T/C [13]?
A: The viability, T/C was 53.2%.

Q: And the viability, T/C [14]?
A: Its viability, T/C is 33.6%.

Q: What about the viability, T/C [15] of the same compound?
A: The viability, T/C was 27.2%.

Q: What about the viability, T/C [16] of the same compound?
A: The viability, T/C was 25.7%.

Q: What about the viability, T/C (second compound 0.0949 µM, first compound 0.00316 µM) of the same compound?
A: The viability, T/C was 83.6%.

Q: What about the viability, T/C (second compound 0.0949 µM, first compound 0.01 µM) of the same compound?
A: Its viability, T/C is 71.8%.

Q: And the viability, T/C [17]?
A: Its viability, T/C is 57.9%.

Q: What about the viability, T/C [18] of the same compound?
A: Its viability, T/C is 38.7%.

Q: What about the viability, T/C [19] of the same compound?
A: The viability, T/C was 28.1%.

Q: What about the viability, T/C [20] of the same compound?
A: The viability, T/C was 20.1%.

Q: And the viability, T/C (second compound 0.3 µM, first compound 0.00316 µM)?
A: The viability, T/C was 85.3%.

Q: And the viability, T/C (second compound 0.3 µM, first compound 0.01 µM)?
A: The viability, T/C was 71.2%.

Q: What about the viability, T/C [21] of the same compound?
A: Its viability, T/C is 58.4%.

Q: And the viability, T/C [22]?
A: Its viability, T/C is 38.5%.

Q: What about the viability, T/C [23] of the same compound?
A: Its viability, T/C is 24.2%.

Q: What about the viability, T/C [24] of the same compound?
A: Its viability, T/C is 22.1%.
